For data set [1] the following is noted: cited from earlier work.
The test system of a further data set is NIH 3T3 fibroblasts. Description: Fresh DOX dose- and time-dependent treatment. Conditions: nine-day treatment with 0.2 μg/mL DOX; vs untreated control. Format: cell-based. An excerpt:
The medium was changed every 24 hr.

For another data set, the system named is MDA-MB-231 cells. The data set is described as follows: Fresh DOX dose- and time-dependent treatment.
In a further data set the test system is 3T3 fibroblast cells. Description: Cytotoxicity cell counting assay in 3T3 fibroblasts. Conditions: 24 h; complex with 4 μg MH in 100 μl or 40 μg/mL fresh MH; vs untreated control. The class given is cell-based. On the procedure: After 24 h, cell viability was determined using a cell counting assay (Roche) according to the manufacturer's instruction, and cell morphology was imaged by staining the cells with cresyl violet (0.5 mg/mL) for 30 min after the cells were fixed. In vitro cytotoxicity of the polyelectrolyte MH/DS/metal ion complexes were studied by using 3T3 fibroblast cells. […] Cell morphology was examined after treatment with MH/DS/metal ion complexes (FIGS. 7C-7F).

For data set [2] the following is noted: systemic administration of 200 mg MH daily (3 mg/kg); human subjects; cited from earlier work.

Where a name gives a salt, the structure may show the parent alone.

The text below walks through data of patent publication US10272098B2, “Chelated drug delivery systems” (Drexel University, priority 2013, dated 2019).

`COc1cccc2c1C(=O)c1c(O)c3c(c(O)c1C2=O)C[C@@](O)(C(=O)CO)C[C@@H]3O[C@H]1C[C@H](N)[C@H](O)[C@H](C)O1` [DOX, doxorubicin]: the “time stock solution is stable” value in data set [1] (4 degree) is reported as 1 month. In data set [1] (cell culture medium at 37° C., 4 days), the DOX degraded is given as 30%-40%. Also, the “time solution is stable” value in data set [1] (room temperature, Adriamycin instruction booklets) is given as 7 days. Besides, the “cell viability of fibroblasts” value in the data set with NIH 3T3 fibroblasts was “did not significantly reduce the cell viability”. The “time in which all the cancer cells were completely killed” value with MDA-MB-231 cells (DOX 0.2 μg/mL) stood at 8 days. Besides, the “DOX concentration range that effectively kills cancer cells with minimal fibroblast cytotoxicity” value with MDA-MB-231 cells (for 5-9 days) was in the range of 0.1 to 0.4 µg/mL.
`CN(C)c1ccc(O)c2c1C[C@H]1C[C@H]3[C@H](N(C)C)C(O)=C(C(N)=O)C(=O)[C@@]3(O)C(O)=C1C2=O` [MH, Minocycline hydrochloride]: the “3T3 fibroblast viability (cell counting assay)” value in the data set on 3T3 fibroblast cells was “no significant difference”. Also, the “MH in the cerebrospinal fluid (CSF)” value in data set [2] is recorded as “about 0.5 μg/mL”.
